# Results published in ChEMBL document CHEMBL1129926, “D4 dopamine receptor-selective compounds from the Chinese plant Phoebe chekiangensis” (Bioorg Med Chem Lett, 1997).
# Target: T1, D(4) dopamine receptor (Homo sapiens, UniProt P21917)
# T1 sequence (P21917 whole entry): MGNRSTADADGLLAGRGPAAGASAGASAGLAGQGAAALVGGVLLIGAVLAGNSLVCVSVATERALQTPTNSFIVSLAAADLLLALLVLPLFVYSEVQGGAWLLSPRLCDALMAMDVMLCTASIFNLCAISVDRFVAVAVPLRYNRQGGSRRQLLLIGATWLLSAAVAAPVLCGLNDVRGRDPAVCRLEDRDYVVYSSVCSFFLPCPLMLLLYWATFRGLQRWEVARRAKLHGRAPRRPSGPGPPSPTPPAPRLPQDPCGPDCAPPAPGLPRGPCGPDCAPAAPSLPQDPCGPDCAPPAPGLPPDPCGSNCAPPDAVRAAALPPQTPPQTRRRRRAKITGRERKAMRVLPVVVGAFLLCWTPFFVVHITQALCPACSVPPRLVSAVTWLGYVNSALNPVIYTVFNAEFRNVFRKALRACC
# Assay: Inhibitory concentration against binding of [3H]spiperone to human D4 dopaminergic receptor
row,IC50 [nM],SMILES
1,39200,Oc1ccc2c(c1)CCN2
2,47500,OC[C@H]1O[C@H](Oc2ccc(CC3NCCc4cc(O)c(O)cc43)cc2)[C@H](O)[C@H](O)[C@H]1O (some centres undefined)

# Target: D(2) dopamine receptor (Homo sapiens, UniProt P14416)
# Sequence (P14416 whole entry): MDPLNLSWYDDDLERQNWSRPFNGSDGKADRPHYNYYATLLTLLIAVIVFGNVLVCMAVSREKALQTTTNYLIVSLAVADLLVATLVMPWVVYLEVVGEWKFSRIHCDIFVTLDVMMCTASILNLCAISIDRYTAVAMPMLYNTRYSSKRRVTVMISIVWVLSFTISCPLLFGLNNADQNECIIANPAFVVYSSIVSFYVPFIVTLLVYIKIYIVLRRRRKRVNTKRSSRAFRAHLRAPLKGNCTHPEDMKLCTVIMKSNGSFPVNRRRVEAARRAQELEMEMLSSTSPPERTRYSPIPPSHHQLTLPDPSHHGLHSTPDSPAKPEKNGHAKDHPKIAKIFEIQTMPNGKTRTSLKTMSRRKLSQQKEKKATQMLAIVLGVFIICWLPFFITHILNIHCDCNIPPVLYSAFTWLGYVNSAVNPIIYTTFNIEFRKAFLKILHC
# Assay: Inhibitory concentration against binding of [3H]spiperone to human D2 dopaminergic receptor
row,IC50 [nM],SMILES
1,1030,Oc1ccc2c(c1)CCN2

# Target: T1, D(4) dopamine receptor
# Assay: Potency was measured by the displacement of [3H]-spiperone binding to human D4 dopaminergic receptor
row,SMILES,Ki [nM]
1,Oc1ccc(CC2NCCc3cc(O)c(O)cc32)cc1O (centres undefined),2500
2,OC[C@H]1O[C@H](Oc2ccc(CC3NCCc4cc(O)c(O)cc43)cc2)[C@H](O)[C@H](O)[C@H]1O (some centres undefined),1200
3,CC1NCCc2cc(O)c(O)cc21 (centres undefined),6400

# Results, then the compound that gave them:
row,Ki [nM],SMILES
1,500,Oc1ccc2c(c1)CCN2
2,350,CN1CCc2cc(O)c(O)cc2C1Cc1ccc(O)c(O)c1 (centres undefined)
3,3100,Oc1ccc(CC2NCCc3cc(O)c(O)cc32)cc1 (centres undefined) [HIGENAMINE]
